≈ marks a conversion by molar mass, not a printed value. Where “and” joins values, the source holds several entries; their conditions need not be identical. Equal values may be shown once. Read-outs that look alike come from different tables or passages of the source.
Experiments:
[1] = clinical; conditions: human, plasma, po, 60 mg
[2] = system: SERT; conditions: cited from earlier work
[3] = system: NET; conditions: cited from earlier work
[4] = clinical dose, ref Nogami et al., 2013

In the case of `CNCC[C@H](Oc1cccc2ccccc12)c1cccs1` [duloxetine], the concentration at 6 h [1] is given as 80.8 ng/mL, the SERT occupancy ([2]; 20 mg, ref Takano et al., 2006) is given as 71.3% and the SERT occupancy ([2]; 60 mg, ref Takano et al., 2006) is given as 81.8%. For the same compound, the “EC50 for SERT occupancy” value ([2]; ref Abanades et al., 2011) was 0.00262 ± 0.00093 µg/mL, the “EC50 for SERT occupancy” value ([2]; ref Takano et al., 2006) was 0.0037 µg/mL and the SERT occupancy ([2]; single dose 40 mg, ref Takano et al., 2006) was 80.6% and ~80%.

For `CNCCC=C1c2ccccc2CCc2ccccc21` [nortriptyline], the “EC50 (plasma drug concentration inducing 50% NET occupancy)” value ([3]; chronically administered 75–200 mg, patients with MDD, ref Takano et al., 2014) is given as 0.0798 µg/mL (≈ 0.303 µM) and the “EC50 (plasma drug concentration inducing 50% NET occupancy)” value ([3]; single low dose (10–75 mg), healthy human volunteers, ref Sekine et al., 2010) is given as 0.0598 µg/mL (≈ 0.227 µM).

In the case of `CCN(CC)C(=O)C1(c2ccccc2)CC1CN` (stereo not shown) [milnacipran], the NET occupancy [3, 4] is listed as “low occupancy” and the SERT occupancy [2, 4] is listed as “low occupancy”.

Source: PMC5716070 (International Journal of Neuropsychopharmacology, 2017)
